IC50 data for 16 compounds are collected here from ChEMBL document CHEMBL3758108, “Synthesis and antiproliferative evaluation of novel 1,2,4-triazole derivatives incorporating benzisoselenazolone scaffold” (Bioorg Med Chem Lett, 2016).

Broadly, the IC50 is the point on the concentration scale where inhibition reaches its midpoint. Read a high IC50 as lower potency.

Experiment [1] deals with L929. The experiment can be described thus: Antiproliferative activity against mouse L929 cells after 48 hrs by CCK8 assay. The experiment is classed as cell-based. To be noted: L929, 48 h.
Experiment [2] has as its system HeLa. Put plainly: Antiproliferative activity against human HeLa cells after 48 hrs by CCK8 assay. The class given is functional, cell-based. (Formazan colour is commonly taken as a measure of viable cells.)
The test system of experiment [3] is A549. The experiment can be described thus: Antiproliferative activity against human A549 cells after 48 hrs by CCK8 assay. The note with it: A549, 48 h. The class given is functional, cell-based.
The nature of experiment [4]: Antiproliferative activity against human SMMC7721 cells after 48 hrs by CCK8 assay. To be noted: SMMC-7721, 48 h. The experiment is classed as functional, cell-based.

For the compound `O=c1c2ccccc2[se]n1-c1nc(SCc2ccc(F)cc2)n[nH]1`, the IC50 in experiment [1] was more than 50 µM; in experiment [2], more than 50 µM; in experiment [3], 36.4 µM; in experiment [4] it was 46.1 µM.

For the compound `O=c1c2ccccc2[se]n1-c1nc(SCc2ccc([N+](=O)[O-])cc2)n[nH]1`, the IC50 worked out at 7.43 µM in experiment [1], 3.94 µM in experiment [2], 9.14 µM in experiment [3] and 8.91 µM in experiment [4].

With `CCCCCSc1n[nH]c(-n2[se]c3ccccc3c2=O)n1`, the IC50 in experiment [1] was 33.5 µM; in experiment [2], 30.3 µM; in experiment [3] it was 21.1 µM; in experiment [4], 31.4 µM.

Take `Cc1ccccc1CSc1n[nH]c(-n2[se]c3ccccc3c2=O)n1`: the IC50 in experiment [1] came to 15.6 µM; in experiment [2], 6.13 µM; in experiment [3] it was 9.72 µM; in experiment [4] it was 36.2 µM.

As to `CCCSc1n[nH]c(-n2[se]c3ccccc3c2=O)n1`, the IC50 amounted to 31.8 µM in experiment [1], 30.4 µM in experiment [2], 45.5 µM in experiment [3] and 6.02 µM in experiment [4].

For the compound `O=c1[nH]cc(F)c(=O)[nH]1` [FLUOROURACIL], the IC50 in experiment [1] is 2.98 µM; in experiment [2], 17.2 µM.

Consider `Cc1ccc(CSc2n[nH]c(-n3[se]c4ccccc4c3=O)n2)cc1`, for which the IC50 in experiment [1] is more than 50 µM; in experiment [2], 34.8 µM; in experiment [3], more than 50 µM; in experiment [4], more than 50 µM.

In the case of `O=c1c2ccccc2[se]n1-c1nc(SCc2ccccc2)n[nH]1`, the IC50 is more than 50 µM in experiment [1], more than 50 µM in experiment [2], more than 50 µM in experiment [3] and 32 µM in experiment [4].

Turning to `Cc1cccc(CSc2n[nH]c(-n3[se]c4ccccc4c3=O)n2)c1`, the IC50 in experiment [1] is more than 50 µM; in experiment [2], 42.6 µM; in experiment [3], 12.4 µM; in experiment [4], 9.04 µM.

Consider `CCSc1n[nH]c(-n2[se]c3ccccc3c2=O)n1`, for which the IC50 in experiment [1] amounted to 35.2 µM; in experiment [2], 14.1 µM; in experiment [3] it was 39.6 µM; in experiment [4], 10 µM.

Consider `O=c1c2ccccc2[se]n1-c1nc(SCc2ccc(Cl)cc2)n[nH]1`, for which the IC50 was 39.5 µM in experiment [1], 40.9 µM in experiment [2], 42.1 µM in experiment [3] and 33.9 µM in experiment [4].

In the case of `CCCCSc1n[nH]c(-n2[se]c3ccccc3c2=O)n1`, the IC50 in experiment [1] was 30.4 µM; in experiment [2], 32.9 µM; in experiment [3] it was 12.5 µM; in experiment [4], 16.8 µM.

For `CCCCCCSc1n[nH]c(-n2[se]c3ccccc3c2=O)n1`, the IC50 in experiment [1] is 39.3 µM; in experiment [2], 35.9 µM; in experiment [3], 20.3 µM; in experiment [4] it was 22.4 µM.

Regarding `CC(C)CSc1n[nH]c(-n2[se]c3ccccc3c2=O)n1`, the IC50 in experiment [1] was 33.4 µM; in experiment [2], 34.9 µM; in experiment [3] it was 37.8 µM; in experiment [4] it was 35 µM.

As for `O=c1c2ccccc2[se]n1CCn1[se]c2ccccc2c1=O` [ETHASELEN], the IC50 was more than 50 µM in experiment [1], 15.9 µM in experiment [2], 3.26 µM in experiment [3] and 10.7 µM in experiment [4].

For the compound `CC(C)Sc1n[nH]c(-n2[se]c3ccccc3c2=O)n1`, the IC50 in experiment [1] was 37.1 µM; in experiment [2], 34.6 µM; in experiment [3], 36.6 µM; in experiment [4], 6.01 µM.
